This is an account of results in patent US8809395B2, “Methods for making valerenic acid derivatives and their use” (Valericon GmbH, priority 2009, dated 2014).

Usually EC50 stands for the concentration needed to bring the measured effect to its halfway point.

For experiment [1], the target named is T1, GABAA channels composed of α1β3 subunits (Rattus norvegicus, UniProt P62813+P63079).
T1 construct: expressed in transfected cells; host or cells: Xenopus laevis oocytes injected with cRNA transcribed from cDNA in pCMV vector
Briefly: Modulation of IGABA, two-microelectrode voltage-clamp on recombinant GABAA receptors expressed in Xenopus laevis oocytes. The format is cell-based. As to conditions: for EC50 / Hill-Coefficient (nH): GABA EC3-5; for Emax: GABA EC3-5, read-out: Maximum stimulation of IGABA (EC3-5). On the procedure:
Preparation of stage V-VI oocytes from Xenopus laevis and synthesis of capped off run-off poly(A^+) cRNA transcripts from linearized cDNA templates (pCMV vector) were performed as described (Khom et al. 2006). Briefly, female Xenopus laevis (NASCO, USA) were anaesthetised by exposing them for 15 minutes to a 0.2% solution of MS-222 (methane sulfonate salt of 3-aminobenzoic acid ethyl ester; Sandoz) before surgically removing parts of the ovaries. Follicle membranes from isolated oocytes were enzymatically digested with 2 mg/ml collagenase (Type 1A, Sigma). One day after isolation, the oocytes were injected with about 10-50 nl of DEPC-treated water (diethyl pyrocarbonate, Sigma, Germany) containing the different cRNAs at a concentration of approximately 300-3000 pg/nl/subunit. The amount of cRNA was determined by means of a Nanoprop ND-1000 (Kisker-biotech, Steinfurt, Germany).
cRNAs were mixed in a ratio of 1:1 for the expression of α1β3 receptors. Oocytes were stored at 18° C. in ND96 solution (Methfessel et al., 1986). Electrophysiological experiments were done using the two-microelectrode voltage-clamp method at a holding potential of −70 mV making use of a TURBO TEC 01C amplifier (npi electronic, Tamm, Germany) and an Axon Digidata 1322A interface (Molecular Devices, Sunnyvale, Calif.). Data acquisition was carried out using pCLAMP v.9.2. The bath solution contained 90 mM NaCl, 1 mM KCl, 1 mM MgCl2.6H2O, 1 mM CaCl2 and 5 mM HEPES (pH 7.4). Microelectrodes were filled with 2M KCl and had resistances between 1 and 3 MΩ (Khom et al., 2007).
GABA and valerenic acid derivatives, respectively, were applied by means of fast perfusion system (see Baburin et al. 2006 for details; Khom et al. 2006). Drug or control solutions were applied by means of a TECAN Miniprep 60 permitting automation of the experiments. To elicit IGABA the chamber was perfused with 120 μl of GABA-containing solution at a rate of between 300 and 1000 μl/s. The IGABA rise time was in the range of between 100 and 250 ms (see Khom et al. 2006). Care was taken to account for possible slow recovery from increasing levels of desensitization in the presence of high GABA, valerenic acid and derivatives concentrations. Oocytes with maximal current amplitudes >3 μA were discarded to exclude voltage-clamp errors (Khom et al., 2006; Baburin et al., 2006; Khom et al., 2007).
Stimulation of chloride currents by modulators of the GABAA receptor was measured at a GABA concentration eliciting between 3% and 5% of the maximal current amplitude (EC3-5). The EC3-5 was determined at the beginning of each experiment. Enhancement of the chloride current was defined as (I(GABA+Comp)/IGABA)−1, where I(GABA+Comp) is the current response in the presence of a given compound (valerenic acid or derivative) and IGABA is the control GABA current. To measure the sensitivity of the GABAA receptor for a given compound, the compound was applied for an equilibration period of 1 minute before applying GABA (EC3-5). Concentration-response curves were generated and the data were fitted by non-linear regression analysis using Origin software (OriginLab Corporation, USA). Data were fitted to the equation:
[formula] where nH is the Hill coefficient. Each data point represents the mean±S.E. from at least 4 oocytes and 2 oocyte batches. Statistical significance was calculated using the paired Student t-test with a confidence interval of p<0.05 (Khom et al., 2007). 4.2.2. Modulation of IGABA by VA Derivatives
Furthermore, the modulation of IGABA by VA derivatives was investigated at a GABA EC3-5 concentration in a system as outlined under 4.2.1, i.e. on recombinant GABAA receptors expressed in Xenopus laevis oocytes. Thus, modulation of IGABA by VA derivatives was studied on GABAA channels composed of α1β3 subunits.

Another experiment deals with c57B1/6N mice. Nature of the experiment: Seizure threshold by pentylenetetrazole (PTZ) tail-vein infusion. The format is in vivo. The settings on record: for seizure threshold: intraperitoneally, 30 min prior to test. The protocol: Seizure threshold was determined by pentylenetetrazole (PTZ) tail-vein infusion at a rate of 100 μl/min ([…] PTZ in saline, pH 7.4) on freely moving animals. 30 min prior to test c57B1/6N mice were intraperitoneally injected with either saline (=control group), VA or VA derivatives at the indicated concentrations. […] Animals were immediately anaesthetized using increasing carbon dioxide concentrations and killed by cervical displacement. The seizure threshold dose was calculated from the infused volume in relation to body weight. Results from tail-vein infusion were verified by intraperitoneal injection of a fixed dose of 30 mg PTZ/kg body weight. Animals were observed and video-tracked for 20 min after treatment.

Another experiment deals with mice (C57B1/6N). Nature of the experiment: Mouse Elevated Plus Maze (EPM) test. It is filed as in vivo. As to conditions: 3 mg/kg BW, injected 30 min prior to testing, assessed over 5 minutes. On the procedure: Male mice (C57B1/6N) were obtained from Charles River Laboratories (Germany). For breeding and maintenance mice were housed in groups with free access to food and water.
Temperature was fixed to 23±1C and 60% humidity with a 12 h light-dark cycle (lights on 0700-1900 hours). Age and testing experience matched male mice at 3-8 months for all experiments. All procedures involving animals were approved by the Austrian Animal Experimentation Ethics Board in compliance with the European convention for the protection of vertebrate animals used for experimental and other scientific purposes ETS no.: 123.
Mice were transferred to the testing facility 24 h before commencement of experiments. Tests were performed between 0900 and 1300 hours. All tests were video monitored and evaluated by an experimenter blinded to the administered compound. […]
Behaviour was tested over 5 minutes on an elevated plus maze (1 meter above ground) consisting of two closed and two open arms, each 50 cm×5 cm in size. […] Analysis of open and closed arm entries and time on open arm was automatically recorded using Video-Mot 2 equipment and software (Wittmann et al., 2008). […]

T1 sequence (P62813 28-455): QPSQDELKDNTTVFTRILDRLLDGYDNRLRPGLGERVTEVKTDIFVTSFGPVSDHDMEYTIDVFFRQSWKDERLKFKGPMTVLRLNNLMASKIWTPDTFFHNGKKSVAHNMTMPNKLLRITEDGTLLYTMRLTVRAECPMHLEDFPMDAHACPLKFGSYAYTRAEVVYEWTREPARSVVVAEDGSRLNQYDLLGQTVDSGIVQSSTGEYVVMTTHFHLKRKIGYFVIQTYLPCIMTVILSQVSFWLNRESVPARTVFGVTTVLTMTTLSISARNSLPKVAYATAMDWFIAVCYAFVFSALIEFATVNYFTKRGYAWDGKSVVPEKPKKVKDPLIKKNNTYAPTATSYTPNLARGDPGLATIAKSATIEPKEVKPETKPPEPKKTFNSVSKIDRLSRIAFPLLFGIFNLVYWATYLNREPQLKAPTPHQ
T1 sequence (P63079 26-473): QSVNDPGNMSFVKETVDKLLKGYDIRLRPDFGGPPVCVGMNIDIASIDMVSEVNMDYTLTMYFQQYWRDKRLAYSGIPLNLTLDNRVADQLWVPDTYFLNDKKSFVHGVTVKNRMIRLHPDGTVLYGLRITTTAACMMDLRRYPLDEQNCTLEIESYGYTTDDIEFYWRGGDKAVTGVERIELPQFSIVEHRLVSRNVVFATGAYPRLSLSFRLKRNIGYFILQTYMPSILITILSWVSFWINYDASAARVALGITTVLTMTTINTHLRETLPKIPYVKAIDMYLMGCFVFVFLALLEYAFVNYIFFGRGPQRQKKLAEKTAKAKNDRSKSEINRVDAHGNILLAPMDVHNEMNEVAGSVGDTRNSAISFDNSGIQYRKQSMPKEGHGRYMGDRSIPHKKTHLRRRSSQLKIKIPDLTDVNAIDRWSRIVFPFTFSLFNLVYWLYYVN

Regarding `CNC(=O)/C(C)=C/[C@@H]1CC[C@@H](C)[C@H]2CCC(C)=C12` [VA-MA, (E)-3-((4S,7R,7aR)-3,7-dimethyl-2,4,5,6,7,7a-hexahydro-1H-inden-4-yl)-N,2-dimethylacrylamide], in experiment [1], the EC50 was determined as 26.3 ± 6.6 µM and the “Hill-Coefficient (nH)” value was 1.4 ± 0.1. Besides, in the experiment with c57B1/6N mice (30 mg/kg bodyweight), the “anticonvulsant effect compared among tested substances” value is “strongest anticonvulsant effect” and the “anticonvulsant effects (in words)” value was “significantly increased”.

For the compound `CC1=C2[C@H](/C=C(\C)C(=O)N3CCOCC3)CC[C@@H](C)[C@H]2CC1` [VA-MO, (E)-3-((4S,7R,7aR)-3,7-dimethyl-2,4,5,6,7,7a-hexahydro-1H-inden-4-yl)-2-methyl-1-morpholinoprop-2-en-1-one], in experiment [1], the EC50 worked out at 64.2 ± 13.8 µM and the “Hill-Coefficient (nH)” value is reported as 1.6 ± 0.2.

`CCNC(=O)/C(C)=C/[C@@H]1CC[C@@H](C)[C@H]2CCC(C)=C12` [VA-EA]: in experiment [1], the EC50 was found to be 23.4 ± 6.9 µM and the “Hill-Coefficient (nH)” value was determined as 1.3 ± 0.3. Besides, the “anticonvulsant effects (in words)” value in the experiment on c57B1/6N mice (30 mg/kg bodyweight) is “significantly increased”.

Regarding `CC1=C2[C@H](/C=C(\C)C(N)=O)CC[C@@H](C)[C@H]2CC1` [VA-A, (E)-3-((4S,7R,7aR)-3,7-dimethyl-2,4,5,6,7,7a-hexahydro-1H-inden-4-yl)-2-methylacrylamide], in experiment [1], the EC50 was found to be 13.7 ± 2.3 µM and the “Hill-Coefficient (nH)” value was determined as 1.6 ± 0.2. Also, in the experiment with mice (C57B1/6N), the “time spent in the open arms of the EPM, % of total time in the test” value is on record as 52.1±3.9%. Further, in the experiment with c57B1/6N mice (3 mg/kg bodyweight), the “anticonvulsant effect compared among tested substances” value was “most pronounced” and the seizure threshold was 58.6±3.7 mg PTZ/kg.

As for `CC1=C2[C@H](/C=C(\C)C(=O)O)CC[C@@H](C)[C@H]2CC1` [VA, (E)-3-[(4S,7R,7aR)-3,7-dimethyl-2,4,5,6,7,7a-hexahydro-1H-inden-4-yl]-2-methylprop-2-enoic acid, reference compound], the seizure threshold in the experiment with c57B1/6N mice (3 mg/kg bodyweight) came out at 47.7±2.7 mg PTZ/kg. Also, the “seizure threshold (in words)” value in the experiment on c57B1/6N mice (concentrations ≧3 mg/kg bodyweight, vs. saline) is given as “significantly increased”.

`CCN(CC)C(=O)/C(C)=C/[C@@H]1CC[C@@H](C)[C@H]2CCC(C)=C12` [VA-DEA, (E)-3-((4S,7R,7aR)-3,7-dimethyl-2,4,5,6,7,7a-hexahydro-1H-inden-4-yl)-N,N-diethyl-2-methylacrylamide]: in experiment [1], the EC50 is 23.7 ± 6.3 µM, the “Hill-Coefficient (nH)” value is 1.4 ± 0.1 and the Emax is 901 ± 120%. Further, the “anticonvulsant effects (in words)” value with c57B1/6N mice (30 mg/kg bodyweight) was “significantly increased”.

Turning to `CC1=C2[C@H](/C=C(\C)C(=O)N3CCCCC3)CC[C@@H](C)[C@H]2CC1` [VA-PIP, (E)-3-((4S,7R,7aR)-3,7-dimethyl-2,4,5,6,7,7a-hexahydro-1H-inden-4-yl)-2-methyl-1-(piperidin-1-yl)prop-2-en-1-one], in experiment [1], the EC50 came out at 54.6 ± 17 µM and the “Hill-Coefficient (nH)” value came to 1.6 ± 0.3.

As to `CC1=C2[C@H](/C=C(\C)C(=O)N(C)C)CC[C@@H](C)[C@H]2CC1` [VA-DMA, (E)-3-((4S,7R,7aR)-3,7-dimethyl-2,4,5,6,7,7a-hexahydro-1H-inden-4-yl)-N,N,2-trimethylacrylamide], in experiment [1], the concentration giving a half-maximal response (EC50) came out at 28.4 ± 7.1 µM and the “Hill-Coefficient (nH)” value worked out at 2.1 ± 0.5.

As for `CCCCNC(=O)/C(C)=C/[C@@H]1CC[C@@H](C)[C@H]2CCC(C)=C12` [VA-BA, (E)-N-butyl-3-((4S,7R,7aR)-3,7-dimethyl-2,4,5,6,7,7a-hexahydro-1H-inden-4-yl)-2-methylacrylamide], in experiment [1], the EC50 was determined as 18.8 ± 6.9 µM, the “Hill-Coefficient (nH)” value is 1.1 ± 0.2 and the Emax was determined as 569 ± 57%.

For the compound `CC1=C2[C@H](/C=C(\C)C(=O)NC(C)C)CC[C@@H](C)[C@H]2CC1` [VA-IPA, (E)-3-((4S,7R,7aR)-3,7-dimethyl-2,4,5,6,7,7a-hexahydro-1H-inden-4-yl)-N-isopropyl-2-methylacrylamide], in experiment [1], the EC50 came to 22.5 ± 6 µM, the “Hill-Coefficient (nH)” value worked out at 1.5 ± 0.3 and the Emax is 506 ± 76%.
